Test results reported in patent US9771334B2, “Triketone compound and preparation method and use thereof” (SHANDONG CYNDA CHEMICAL CO., LTD., priority 2013, dated 2017).

Tests used:
Assay type in all cases: in vivo
amaranthus retroflexus = experiment: Herbicidal activity, pot culture method (primary and secondary screening test); conditions: sprayed at 3-leaf stage; for inhibition ratio, Amaranthus retroflexus: investigated 15 days later; for herbicidal activity inhibition ratio (%), Amaranthus retroflexus: primary screening, pot culture, 150 g/ha, result 15 days later
Method in brief: (§1)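 Post-emergence pot test: 3-leaf-stage weeds, tower spray of 0.2 g/L solution (DMF stock, water dilution) at 150 g/ha, greenhouse, inhibition (%) scored at 15 days. Secondary screen at a reduced dose.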

abutilon theophrasti = experiment: as above; conditions: sprayed at 3-leaf stage; for inhibition ratio, Abutilon theophrasti: investigated 15 days later; for herbicidal activity inhibition ratio (%), Abutilon theophrasti: primary screening, pot culture, 150 g/ha, result 15 days later
Method in brief: as §1

eclipta prostrata = experiment: as above; conditions: sprayed at 3-leaf stage; for inhibition ratio, Eclipta prostrata: investigated 15 days later; for herbicidal activity inhibition ratio (%), Eclipta prostrata: primary screening, pot culture, 150 g/ha, result 15 days later
Method in brief: as §1

digitaria sanguinalis = experiment: as above; conditions: sprayed at 3-leaf stage; for inhibition ratio, Digitaria sanguinalis: investigated 15 days later; for herbicidal activity inhibition ratio (%), Digitaria sanguinalis: primary screening, pot culture, 150 g/ha, result 15 days later
Method in brief: as §1

echinochloa crusgalli = experiment: as above; conditions: sprayed at 3-leaf stage; for inhibition ratio, Echinochloa crusgalli: investigated 15 days later; for herbicidal activity inhibition ratio (%), Echinochloa crusgalli: primary screening, pot culture, 150 g/ha, result 15 days later
Method in brief: as §1

setaria viridis = experiment: as above; conditions: for inhibition ratio, Setaria viridis / herbicidal activity inhibition ratio (%), Setaria viridis: sprayed at 3-leaf stage; for inhibition ratio, Setaria viridis: investigated 15 days later; for herbicidal activity inhibition ratio (%), Setaria viridis: primary screening, pot culture, 150 g/ha, result 15 days later
Method in brief: as §1

maize = experiment: Crop safety test (pot culture method); conditions: plants with about 4-5 leaves, investigated 15 days later
Description: (§2) This test example is for describing crop safety of the compound with a structure shown in Formula (1). Crop safety test method (pot culture method): The test targets are wheat and maize. Take flowerpots with an inner diameter of 12 cm, put composite soil (vegetable garden soil:seedling matrix=1:2, v/v) into them till ¾ of flowerpot height, directly sow the crop seeds (budding rate>85%), cover them with 0.2 cm thick soil, and keep the plants for future use when they grow to have about 4-5 leaves. Each compound is dissolved in N,N-dimethylformamide at doses of 75 g/ha or 150 g/ha and diluted with distilled water containing 0.1% tween-80 emulsifier to form 0.1 g/L (75 g/ha) solution and 0.2 g/L (150 g/ha) solution respectively. The solutions are sprayed through an automatic spray tower. After the solutions on weed leaves are dried in the air, the flowerpots are moved into a greenhouse for cultivation. The result is investigated 15 days later.

wheat = experiment: Crop safety test (pot culture method); conditions: plants with about 4-5 leaves, investigated 15 days later
Description: as §2

CC(C)c1ccccc1-n1c(=O)c2cc(C(=O)C3=C(O)CCCC3=O)ccc2n(C)c1=O [Compound 65]
inhibition ratio, Amaranthus retroflexus (amaranthus retroflexus; dose 37.5 g/ha): 50% | inhibition ratio, Amaranthus retroflexus (amaranthus retroflexus; dose 75 g/ha): 60% | herbicidal activity inhibition ratio (%), Amaranthus retroflexus (amaranthus retroflexus): 90% | inhibition ratio, Abutilon theophrasti (abutilon theophrasti; dose 37.5 g/ha): 50% | inhibition ratio, Abutilon theophrasti (abutilon theophrasti; dose 75 g/ha): 70% | herbicidal activity inhibition ratio (%), Abutilon theophrasti (abutilon theophrasti): 98% | inhibition ratio, Eclipta prostrata (eclipta prostrata; dose 37.5 g/ha): 30% | inhibition ratio, Eclipta prostrata (eclipta prostrata; dose 75 g/ha): 50% | herbicidal activity inhibition ratio (%), Eclipta prostrata (eclipta prostrata): 80% | inhibition ratio, Digitaria sanguinalis (digitaria sanguinalis; dose 37.5 g/ha): 30% | inhibition ratio, Digitaria sanguinalis (digitaria sanguinalis; dose 75 g/ha): 40% | herbicidal activity inhibition ratio (%), Digitaria sanguinalis (digitaria sanguinalis): 100% | inhibition ratio, Echinochloa crusgalli (echinochloa crusgalli; dose 37.5 g/ha): 95% | inhibition ratio, Echinochloa crusgalli (echinochloa crusgalli; dose 75 g/ha): 100% | herbicidal activity inhibition ratio (%), Echinochloa crusgalli (echinochloa crusgalli): 80% | inhibition ratio, Setaria viridis (setaria viridis; dose 37.5 g/ha): 80% | inhibition ratio, Setaria viridis (setaria viridis; dose 75 g/ha): 85% | herbicidal activity inhibition ratio (%), Setaria viridis (setaria viridis): 98% | inhibition ratio, Maize (crop safety) (maize; dose 75 g/ha): 0% | inhibition ratio, Maize (crop safety) (maize; dose 150 g/ha): 10% | inhibition ratio, Wheat (crop safety) (wheat; dose 75 g/ha): 0% | inhibition ratio, Wheat (crop safety) (wheat; dose 150 g/ha): 10%

CCn1c(=O)n(-c2ccccc2C)c(=O)c2cc(C(=O)C3=C(O)CCCC3=O)ccc21 [Compound 66]
inhibition ratio, Amaranthus retroflexus (amaranthus retroflexus; dose 37.5 g/ha): 90% | inhibition ratio, Amaranthus retroflexus (amaranthus retroflexus; dose 75 g/ha): 100% | herbicidal activity inhibition ratio (%), Amaranthus retroflexus (amaranthus retroflexus): 93% | inhibition ratio, Abutilon theophrasti (abutilon theophrasti; dose 37.5 g/ha): 100% | inhibition ratio, Abutilon theophrasti (abutilon theophrasti; dose 75 g/ha): 100% | herbicidal activity inhibition ratio (%), Abutilon theophrasti (abutilon theophrasti): 100% | inhibition ratio, Eclipta prostrata (eclipta prostrata; dose 37.5 g/ha): 95% | inhibition ratio, Eclipta prostrata (eclipta prostrata; dose 75 g/ha): 100% | herbicidal activity inhibition ratio (%), Eclipta prostrata (eclipta prostrata): 95% | inhibition ratio, Digitaria sanguinalis (digitaria sanguinalis; dose 37.5 g/ha): 60% | inhibition ratio, Digitaria sanguinalis (digitaria sanguinalis; dose 75 g/ha): 97.5% | herbicidal activity inhibition ratio (%), Digitaria sanguinalis (digitaria sanguinalis): 95% | inhibition ratio, Echinochloa crusgalli (echinochloa crusgalli; dose 37.5 g/ha): 100% | inhibition ratio, Echinochloa crusgalli (echinochloa crusgalli; dose 75 g/ha): 100% | herbicidal activity inhibition ratio (%), Echinochloa crusgalli (echinochloa crusgalli): 100% | inhibition ratio, Setaria viridis (setaria viridis; dose 37.5 g/ha): 97.5% | inhibition ratio, Setaria viridis (setaria viridis; dose 75 g/ha): 100% | herbicidal activity inhibition ratio (%), Setaria viridis (setaria viridis): 100% | inhibition ratio, Maize (crop safety) (maize; dose 75 g/ha): 0% | inhibition ratio, Maize (crop safety) (maize; dose 150 g/ha): 5% | inhibition ratio, Wheat (crop safety) (wheat; dose 75 g/ha): 0% | inhibition ratio, Wheat (crop safety) (wheat; dose 150 g/ha): 10%

CCn1c(=O)n(-c2ccccc2C)c(=O)c2cc(C(=O)C3=C(O)CC(C)CC3=O)ccc21 (stereo not drawn) [Compound 70]
inhibition ratio, Amaranthus retroflexus (amaranthus retroflexus; dose 37.5 g/ha): 50% | inhibition ratio, Amaranthus retroflexus (amaranthus retroflexus; dose 75 g/ha): 70% | herbicidal activity inhibition ratio (%), Amaranthus retroflexus (amaranthus retroflexus): 98% | inhibition ratio, Abutilon theophrasti (abutilon theophrasti; dose 37.5 g/ha): 50% | inhibition ratio, Abutilon theophrasti (abutilon theophrasti; dose 75 g/ha): 73% | herbicidal activity inhibition ratio (%), Abutilon theophrasti (abutilon theophrasti): 100% | inhibition ratio, Eclipta prostrata (eclipta prostrata; dose 37.5 g/ha): 60% | inhibition ratio, Eclipta prostrata (eclipta prostrata; dose 75 g/ha): 78% | herbicidal activity inhibition ratio (%), Eclipta prostrata (eclipta prostrata): 100% | inhibition ratio, Digitaria sanguinalis (digitaria sanguinalis; dose 37.5 g/ha): 80% | inhibition ratio, Digitaria sanguinalis (digitaria sanguinalis; dose 75 g/ha): 75% | herbicidal activity inhibition ratio (%), Digitaria sanguinalis (digitaria sanguinalis): 90% | inhibition ratio, Echinochloa crusgalli (echinochloa crusgalli; dose 37.5 g/ha): 40% | inhibition ratio, Echinochloa crusgalli (echinochloa crusgalli; dose 75 g/ha): 55% | herbicidal activity inhibition ratio (%), Echinochloa crusgalli (echinochloa crusgalli): 100% | inhibition ratio, Setaria viridis (setaria viridis; dose 37.5 g/ha): 83% | inhibition ratio, Setaria viridis (setaria viridis; dose 75 g/ha): 93% | herbicidal activity inhibition ratio (%), Setaria viridis (setaria viridis): 100% | inhibition ratio, Maize (crop safety) (maize; dose 75 g/ha): 0% | inhibition ratio, Maize (crop safety) (maize; dose 150 g/ha): 15% | inhibition ratio, Wheat (crop safety) (wheat; dose 75 g/ha): 0% | inhibition ratio, Wheat (crop safety) (wheat; dose 150 g/ha): 10%

Cc1c(C(=O)C2=C(O)CC(C)(C)CC2=O)ccc2c1c(=O)n(-c1ccccc1C(F)(F)F)c(=O)n2C [Compound 91]
inhibition ratio, Amaranthus retroflexus (amaranthus retroflexus; dose 37.5 g/ha): 60% | inhibition ratio, Amaranthus retroflexus (amaranthus retroflexus; dose 75 g/ha): 80% | herbicidal activity inhibition ratio (%), Amaranthus retroflexus (amaranthus retroflexus): 100% | inhibition ratio, Abutilon theophrasti (abutilon theophrasti; dose 37.5 g/ha): 85% | inhibition ratio, Abutilon theophrasti (abutilon theophrasti; dose 75 g/ha): 93% | herbicidal activity inhibition ratio (%), Abutilon theophrasti (abutilon theophrasti): 100% | inhibition ratio, Eclipta prostrata (eclipta prostrata; dose 37.5 g/ha): 80% | inhibition ratio, Eclipta prostrata (eclipta prostrata; dose 75 g/ha): 93% | herbicidal activity inhibition ratio (%), Eclipta prostrata (eclipta prostrata): 100% | inhibition ratio, Digitaria sanguinalis (digitaria sanguinalis; dose 37.5 g/ha): 70% | inhibition ratio, Digitaria sanguinalis (digitaria sanguinalis; dose 75 g/ha): 90% | herbicidal activity inhibition ratio (%), Digitaria sanguinalis (digitaria sanguinalis): 100% | inhibition ratio, Echinochloa crusgalli (echinochloa crusgalli; dose 37.5 g/ha): 65% | inhibition ratio, Echinochloa crusgalli (echinochloa crusgalli; dose 75 g/ha): 90% | herbicidal activity inhibition ratio (%), Echinochloa crusgalli (echinochloa crusgalli): 100% | inhibition ratio, Setaria viridis (setaria viridis; dose 37.5 g/ha): 100% | inhibition ratio, Setaria viridis (setaria viridis; dose 75 g/ha): 100% | herbicidal activity inhibition ratio (%), Setaria viridis (setaria viridis): 100% | inhibition ratio, Maize (crop safety) (maize; dose 75 g/ha): 0% | inhibition ratio, Maize (crop safety) (maize; dose 150 g/ha): 10% | inhibition ratio, Wheat (crop safety) (wheat; dose 75 g/ha): 0% | inhibition ratio, Wheat (crop safety) (wheat; dose 150 g/ha): 10%

CS(=O)(=O)c1ccc(C(=O)C2C(=O)CCCC2=O)c([N+](=O)[O-])c1 [Mesotrione, mesotrione, reference compound]
inhibition ratio, Amaranthus retroflexus (amaranthus retroflexus; dose 37.5 g/ha): 70% | inhibition ratio, Amaranthus retroflexus (amaranthus retroflexus; dose 75 g/ha): 75% | inhibition ratio, Abutilon theophrasti (abutilon theophrasti; dose 37.5 g/ha): 100% | inhibition ratio, Abutilon theophrasti (abutilon theophrasti; dose 75 g/ha): 100% | inhibition ratio, Eclipta prostrata (eclipta prostrata; dose 37.5 g/ha): 75% | inhibition ratio, Eclipta prostrata (eclipta prostrata; dose 75 g/ha): 85% | inhibition ratio, Digitaria sanguinalis (digitaria sanguinalis; dose 37.5 g/ha): 40% | inhibition ratio, Digitaria sanguinalis (digitaria sanguinalis; dose 75 g/ha): 70% | inhibition ratio, Echinochloa crusgalli (echinochloa crusgalli; dose 37.5 g/ha): 50% | inhibition ratio, Echinochloa crusgalli (echinochloa crusgalli; dose 75 g/ha): 70% | inhibition ratio, Setaria viridis (setaria viridis; dose 37.5 g/ha): 0% | inhibition ratio, Setaria viridis (setaria viridis; dose 75 g/ha): 0% | prevention and control of setaria viridis (in words) (setaria viridis; secondary screening, 37.5 and 75 g/ha): cannot be prevented and controlled | inhibition ratio, Maize (crop safety) (maize; dose 75 g/ha): 7% | inhibition ratio, Maize (crop safety) (maize; dose 150 g/ha): 15% | inhibition ratio, Wheat (crop safety) (wheat; dose 75 g/ha): 10% | inhibition ratio, Wheat (crop safety) (wheat; dose 150 g/ha): 40%
